Assay results as given in patent EP2914280B1, “SOMATOSTATIN-DOPAMINE CHIMERIC ANALOGS” (IPSEN PHARMA S.A.S., priority 2012, dated 2014).
Like-named read-outs stand apart in the source and are kept apart here. Numbered stars: 1 amine (or outer) side, 2 acyl side, 3 side chain; on linkers, the order of the positions; unused ones are H or OH. Bridge positions count the residues as written; N and C are the ends. Square brackets hold non-standard residues; d marks the D form. Peptide text beside a SMILES is read from it. * marks the point of attachment. X1 = CN1C[C@H](CSCCN(CCSC[C@@H]2C[C@@H]3c4cccc5[nH]cc(c45)C[C@H]3N(C)C2)[C@H](CCCCN[*:2])C(=O)[*:1])C[C@@H]2c3cccc4[nH]cc(c34)C[C@H]21; X2 = CN1C[C@H](CSCC(=O)*)C[C@@H]2c3cccc4[nH]cc(c34)C[C@H]21; dDab = NCC[C@@H](N)C(=O)O

What was measured:
hDRD2 [1] = biological target: T1, hDRD2 (Homo sapiens, UniProt P14416); test: cell-based; design: host or cells: 'Cells expressing hDRD2'; conditions: for Emax: read-out: hDRD2 %Emax ± SEM
T1 sequence (P14416 whole entry): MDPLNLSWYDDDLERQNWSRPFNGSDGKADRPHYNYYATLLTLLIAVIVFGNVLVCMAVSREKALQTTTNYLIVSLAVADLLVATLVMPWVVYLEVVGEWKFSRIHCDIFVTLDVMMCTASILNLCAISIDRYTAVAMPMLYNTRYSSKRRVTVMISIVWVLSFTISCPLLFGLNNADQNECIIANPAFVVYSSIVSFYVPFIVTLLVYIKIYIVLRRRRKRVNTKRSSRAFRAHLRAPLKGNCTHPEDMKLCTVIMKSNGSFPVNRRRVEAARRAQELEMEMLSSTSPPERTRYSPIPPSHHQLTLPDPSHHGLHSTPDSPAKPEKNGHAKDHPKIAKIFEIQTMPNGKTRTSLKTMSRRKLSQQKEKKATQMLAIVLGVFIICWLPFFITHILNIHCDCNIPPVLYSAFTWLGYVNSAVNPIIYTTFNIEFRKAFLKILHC
Procedure: (§1) The ability of select compounds according to the present invention to activate hSSTR2 and hDRD2 was determined by the intracellular calcium mobilization assay using FLIPR Calcium 4 assay kit (Molecular Devices).
(§2) Cells expressing hSSTR2 or hDRD2 were plated in 384-well microplates in tissue culture media and incubated for 16-24 hours at 37°C in a humidified atmosphere with 5% CO2. Medium was replaced by loading buffer containing Hank's buffered saline, 20 mM HEPES, 2.5 mM probenecid and Calcium 4 dye, and the plates were incubated at 37°C for 60 minutes.

hDRD2 [2] = biological target: T1, hDRD2; test: biochemical; type: binding; design: expressed in transfected cells; host or cells: CHO-K1, pcDNA3.1/GS, zeocin-selected clonal line; membranes
hSSTR2 [3] = biological target: T2, hSSTR2 (Homo sapiens, UniProt P30874); test: Somatostatin receptor radioligand binding assay (hSSTR2);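 further: radioligand displacement on membranes of CHO-K1 cells stably transfected with human SSTR2, specific binding taken as total minus binding left with 1000 nM SRIF-14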
T2 construct: host or cells: 'Cells expressing hSSTR2'
T2 sequence (P30874 whole entry): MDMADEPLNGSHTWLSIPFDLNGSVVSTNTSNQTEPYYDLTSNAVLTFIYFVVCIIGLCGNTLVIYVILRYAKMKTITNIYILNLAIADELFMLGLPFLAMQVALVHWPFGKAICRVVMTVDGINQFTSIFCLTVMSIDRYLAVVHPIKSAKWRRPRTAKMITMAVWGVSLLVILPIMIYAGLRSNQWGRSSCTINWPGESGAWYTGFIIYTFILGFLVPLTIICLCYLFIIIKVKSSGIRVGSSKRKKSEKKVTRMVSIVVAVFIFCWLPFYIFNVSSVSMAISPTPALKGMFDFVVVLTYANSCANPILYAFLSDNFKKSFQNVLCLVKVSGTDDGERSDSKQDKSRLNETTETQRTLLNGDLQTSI

hSSTR2 [4] = biological target: T2, hSSTR2; test: Intracellular calcium mobilization assay (FLIPR Calcium 4), hSSTR2; type: cell-based;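 further: agonist activity measured in cells expressing hSSTR2, seeded in 384-well plates, loaded with Calcium 4 dye, read-out as rise in intracellular calcium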
Procedure: as §1, §2

[5] = CHO-K1 cell membranes, […] [3H]-spiperone, 60 minutes at 25°C, read-out: hDRD2 Ki (nM) ± SEM

Row | Compound | Emax (hDRD2 [1]) [%] | Ki (hDRD2 [2]) [nM] | Ki (hSSTR2 [3]) [nM] | EC50 (hDRD2 [1]) [nM] | EC50 (hSSTR2 [4]) [nM] | Ki (hDRD2 [2]; [5]) [nM] | Ki (hSSTR2 [3]; CHO-K1 cell membranes, 0.05 nM [125I-Tyr]-seglitide, 60 minutes at 25°C, read-out: hSSTR2 Ki (nM) ± SEM) [nM] | Emax (hSSTR2 [4]; read-out: hSSTR2 %Emax ± SEM) [%]
1 | CC(=O)N(CCCNC(CN[C@@H]1CCCCNC(=O)[C@H](Cc2ccc(F)cc2)NC(=O)[C@H]([C@@H](C)O)NC(=O)[C@H](CCCCN)NC(=O)[C@@H](Cc2c[nH]c3ccccc23)NC(=O)[C@H](Cc2ccccc2)NC(=O)[C@H](Cc2ccccc2)NC(=O)[C@H](CCCNC(=N)N)NC1=O)Cc1ccc(O)cc1)C[C@@H]1C[C@@H]2c3cccc4[nH]cc(c34)C[C@H]2N(C)C1 (single isomer, unassigned) [Compound 28A, 3-[N-acetyl-N-(D-6-methyl-8β-ergolinylmethyl)]-aminopropionyl-psi(CH2NH)-Tyr-psi(CH2NH)-cyclo(DLys-Arg-Phe-Phe-DTrp-Lys-Thr-4FPhe)] | 79.7 ± 11.4 | 14 ± 3.4 | 0.04 ± 0.02 |  |  |  |  | 
2 | C[C@@H](O)[C@@H]1NC(=O)[C@H](CCCCN)NC(=O)[C@@H](Cc2c[nH]c3ccccc23)NC(=O)[C@H](Cc2ccccc2)NC(=O)[C@H](Cc2ccccc2)NC(=O)[C@H](CCCNC(=N)N)NC(=O)[C@H](NCCCC[C@@H]2C[C@@H]3c4cccc5[nH]cc(c45)C[C@H]3N(C)C2)CCCCNC(=O)[C@H](Cc2ccc(F)cc2)NC1=O [Compound 2, (D-6-methyl-8β-ergolinyl)-butanoyl-psi(CH2NH)-cyclo(DLys-Arg-Phe-Phe-DTrp-Lys-Thr-4FPhe)] | 84 ± 7.6 | 6.9 ± 0.4 | 0.79 ± 0.06 | 55.7 ± 12.4 | 21.1 ± 6.7 |  |  | 
3 | C[C@@H](O)[C@@H]1NC(=O)[C@H](CCCCN)NC(=O)[C@@H](Cc2c[nH]c3ccccc23)NC(=O)[C@H](Cc2ccccc2)NC(=O)[C@H](Cc2ccccc2)NC(=O)[C@H](CCCNC(=N)N)NC(=O)[C@H](NCCCCC[C@@H]2C[C@@H]3c4cccc5[nH]cc(c45)C[C@H]3N(C)C2)CCCCNC(=O)[C@H](Cc2ccc(F)cc2)NC1=O [Compound 3, (D-6-methyl-8β-ergolinyl)-pentanoyl-psi(CH2NH)-cyclo(DLys-Arg-Phe-Phe-DTrp-Lys-Thr-4FPhe)] | 84.1 ± 12.2 | 45.2 ± 4.9 | 0.72 ± 0.17 | 212 ± 85.6 | 137 ± 63.8 |  |  | 
4 | C[C@@H](O)[C@@H]1NC(=O)[C@H](CCCCN)NC(=O)[C@@H](Cc2c[nH]c3ccccc23)NC(=O)[C@H](Cc2ccccc2)NC(=O)[C@H](Cc2ccccc2)NC(=O)[C@H](CCCNC(=N)N)NC(=O)[C@H](NCCSC[C@@H]2C[C@@H]3c4cccc5[nH]cc(c45)C[C@H]3N(C)C2)CCCCNC(=O)[C@H](Cc2ccc(F)c(F)c2)NC1=O [Compound 6A, Dop1-psi(CH2NH)-cyclo(DLys-Arg-Phe-Phe-DTrp-Lys-Thr-3,4FPhe)] | 91.5 ± 3 | 16.9 ± 0.2 | 0.35 | 62.1 ± 16.4 | 15.7 ± 4.3 |  |  | 
5 | C[C@@H](O)[C@@H]1NC(=O)[C@H](CCCCN)NC(=O)[C@@H](Cc2c[nH]c3ccccc23)NC(=O)[C@H](Cc2ccccc2)NC(=O)[C@H](Cc2ccccc2)NC(=O)[C@H](CCCNC(=N)N)NC(=O)[C@H](NCCSC[C@@H]2C[C@@H]3c4cccc5[nH]cc(c45)C[C@H]3N(C)C2)CCCCNC(=O)[C@H](Cc2cc(F)cc(F)c2)NC1=O [Compound 6B, Dop1-psi(CH2NH)-cyclo(DLys-Arg-Phe-Phe-DTrp-Lys-Thr-3,5FPhe)] | 85.1 ± 9.6 | 25.4 ± 7.9 | 0.25 ± 0.03 | 112 ± 27.8 | 17 ± 6.5 |  |  | 
6 | C[C@@H](O)[C@@H]1NC(=O)[C@H](CCCCN)NC(=O)[C@@H](Cc2c[nH]c3ccccc23)NC(=O)[C@H](Cc2ccccc2)NC(=O)[C@H](Cc2ccccc2)NC(=O)[C@H](CCCNC(=N)N)NC(=O)[C@H](NCCSC[C@@H]2C[C@@H]3c4cccc5[nH]cc(c45)C[C@H]3N(C)C2)CCCCNC(=O)[C@H](Cc2cccc(F)c2)NC1=O [Compound 6C, Dop1-psi(CH2NH)-cyclo(DLys-Arg-Phe-Phe-DTrp-Lys-Thr-3FPhe)] | 94.4 ± 5.1 | 30.3 ± 3.7 | 0.15 ± 0.04 | 60 ± 21.7 | 16.2 ± 5.9 |  |  | 
7 | C[C@@H](O)[C@@H]1NC(=O)[C@H](CCCCN)NC(=O)[C@@H](Cc2c[nH]c3ccccc23)NC(=O)[C@H](Cc2ccccc2)NC(=O)[C@H](Cc2ccccc2)NC(=O)[C@H](CCCNC(=N)N)NC(=O)[C@H](NCCSC[C@@H]2C[C@@H]3c4cccc5[nH]cc(c45)C[C@H]3N(C)C2)CCCCNC(=O)[C@H](Cc2ccccc2F)NC1=O [Compound 6D, Dop1-psi(CH2NH)-cyclo(DLys-Arg-Phe-Phe-DTrp-Lys-Thr-2FPhe)] | 101 ± 2.7 | 31.8 ± 11.8 | 0.54 ± 0.12 | 64.5 ± 20.5 | 25 ± 7.7 |  |  | 
8 | C[C@@H](O)[C@@H]1NC(=O)[C@H](CCCCN)NC(=O)[C@@H](Cc2c[nH]c3ccccc23)NC(=O)[C@H](Cc2ccccc2)NC(=O)[C@H](Cc2ccccc2)NC(=O)[C@H](CCCNC(=N)N)NC(=O)[C@H](NCCSC[C@@H]2C[C@@H]3c4cccc5[nH]cc(c45)C[C@H]3N(C)C2)CCCCNC(=O)[C@H](Cc2c(F)c(F)c(F)c(F)c2F)NC1=O [Compound 6E, Dop1-psi(CH2NH)-cyclo(DLys-Arg-Phe-Phe-DTrp-Lys-Thr-2,3,4,5,6FPhe)] | 54.1 ± 20.6 | 40.4 ± 13.2 | 5.48 ± 3.38 | 480 ± 125 | 223 ± 13.7 |  |  | 
9 | C[C@@H](O)[C@@H]1NC(=O)[C@H](CCCCN)NC(=O)[C@@H](Cc2c[nH]c3ccccc23)NC(=O)[C@H](Cc2ccncc2)NC(=O)[C@H](Cc2ccccc2)NC(=O)[C@H](CCCNC(=N)N)NC(=O)[C@H](NC[C@H](CCCCNC(=O)C[S+]([O-])C[C@@H]2C[C@@H]3c4cccc5[nH]cc(c45)C[C@H]3N(C)C2)NC(=O)C[S+]([O-])C[C@@H]2C[C@@H]3c4cccc5[nH]cc(c45)C[C@H]3N(C)C2)CCCCNC(=O)[C@H](Cc2ccc(O)cc2)NC1=O (stereo partly drawn) [Compound 16, Dop1(SO)-Lys[Dop1(SO)]-psi(CH2NH)-cyclo(DLys-Arg-Phe-4Pal-DTrp-Lys-Thr-Tyr)] | 95.2 ± 1.7 | 22.5 ± 1.9 | 0.04 ± 0.03 | 4.7 ± 0.5 | 6 ± 0.8 |  |  | 
10 | C[C@@H](O)[C@@H]1NC(=O)[C@H](CCCCN)NC(=O)[C@@H](Cc2c[nH]c3ccccc23)NC(=O)[C@H](Cc2ccccc2)NC(=O)[C@H](Cc2ccccc2)NC(=O)[C@H](CCCNC(=N)N)NC(=O)[C@H](NC[C@H](Cc2ccc(O)cc2)NC(=O)CSC[C@@H]2C[C@@H]3c4cccc5[nH]cc(c45)C[C@H]3N(C)C2)CCCNC(=O)[C@H](Cc2ccccc2)NC1=O [Compound 30, Dop1-Tyr-psi(CH2NH)-cyclo(DOrn-Arg-Phe-Phe-DTrp-Lys-Thr-Phe)] |  |  | 0.4 ± 0.06 |  | 13.1 ± 4.2 |  |  | 
11 | C[C@@H](O)[C@@H]1NC(=O)[C@H](CCCCN)NC(=O)[C@@H](Cc2c[nH]c3ccccc23)NC(=O)[C@H](Cc2cccnc2)NC(=O)[C@H](Cc2ccccc2)NC(=O)[C@H](CCCNC(=N)N)NC(=O)[C@H](NC[C@H](Cc2ccc(O)cc2)NC(=O)CSC[C@@H]2C[C@@H]3c4cccc5[nH]cc(c45)C[C@H]3N(C)C2)CCCCNC(=O)[C@H](Cc2ccccc2)NC1=O [Compound 38, Dop1-Tyr-psi(CH2NH)-cyclo(DLys-Arg-Phe-3Pal-DTrp-Lys-Thr-Phe)] | 97.5 ± 0.3 |  |  |  |  | 179 ± 113 |  | 
12 | C[C@@H](O)[C@@H]1NC(=O)[C@H](CCCCN)NC(=O)[C@@H](Cc2c[nH]c3ccccc23)NC(=O)[C@H](Cc2ccccc2)NC(=O)[C@H](Cc2ccccc2)NC(=O)[C@H](CCCNC(=N)N)NC(=O)[C@H](N(CCSC[C@@H]2C[C@@H]3c4cccc5[nH]cc(c45)C[C@H]3N(C)C2)CCSC[C@@H]2C[C@@H]3c4cccc5[nH]cc(c45)C[C@H]3N(C)C2)CCCCNC(=O)[C@H](Cc2ccccc2)NC1=O [Compound 40, bis[Dop1-psi(CH2N)]-cyclo(DLys-Arg-Phe-Phe-DTrp-Lys-Thr-Phe)] (RFF[dW]KTF; linker N-C via X1) | 91.5 |  | 3.17 ± 1.41 | 123 ± 6.5 | 27 ± 6.5 |  |  | 
13 | C[C@@H](O)[C@@H]1NC(=O)[C@H](CCCCN)NC(=O)[C@@H](Cc2c[nH]c3ccccc23)NC(=O)[C@H](Cc2ccccc2)NC(=O)[C@H](Cc2ccccc2)NC(=O)[C@H](CCCNC(=N)N)NC(=O)[C@H](NC[C@@H](Cc2ccc(O)cc2)NC(=O)CSC[C@@H]2C[C@@H]3c4cccc5[nH]cc(c45)C[C@H]3N(C)C2)CCCCNC(=O)[C@H](Cc2ccccc2)NC1=O [Compound 41, Dop1-DTyr-psi(CH2NH)-cyclo(DLys-Arg-Phe-Phe-DTrp-Lys-Thr-Phe)] | 91.2 |  |  |  |  | 8.5 ± 3.6 | 0.37 | 
14 | C[C@@H](O)[C@@H]1NC(=O)[C@H](CCCCN)NC(=O)[C@@H](Cc2c[nH]c3ccccc23)NC(=O)[C@H](Cc2ccccc2)NC(=O)[C@H](Cc2ccccc2)NC(=O)[C@H](CCCNC(=N)N)NC(=O)[C@H](NC(=O)[C@H](CCCCNC(=O)CSC[C@@H]2C[C@@H]3c4cccc5[nH]cc(c45)C[C@H]3N(C)C2)NC(=O)CSC[C@@H]2C[C@@H]3c4cccc5[nH]cc(c45)C[C@H]3N(C)C2)CCNC(=O)[C@H](Cc2ccccc2)NC1=O [Reference Compound C, Dopl-Lys(Dopl)-cyclo(DDab-Arg-Phe-Phe-DTrp-Lys-Thr-Phe), reference compound] (X2-K(X2)[dDab]RFF[dW]KTF; lactam 2-C (inferred)) | 101 ± 0.8 |  |  |  |  |  |  | 60.6 ± 3.2
